Drawing on patent US7407941B2, “N-desmethyl-N-substituted-11-deoxyerythromycin compounds” (Pfizer, Inc., priority 2003, dated 2008), this text covers EC50 and MIC for four compounds.

Holding throughout (format): cell-based
In test [1] the target is T1, motilin receptor (Homo sapiens, UniProt O43193).
T1 construct: expressed in transfected cells
Put plainly: Motilin agonist activity (activation of the motilin receptor). The procedure: Compounds of this invention were tested for motilin agonist activity, following the procedure of Carreras et al., Anal. Biochem., 300, 146-151 (2002), the disclosure of which is incorporated herein by reference.

Test [2] relates to Streptococcus pneumoniae ATCC 70071. Put plainly: In vitro antibacterial activity (MIC). Conditions: ATCC70071, erythromycin sensitive strain ATCC 70071. The procedure:
(§1) Compounds of this invention were tested for in vitro activity against three erythromycin sensitive strains of Streptococcus pneumoniae (ATCC 6301, ATCC 700671, and ATCC 49619), using methods known in the microbiological art.

Test [3] relates to Streptococcus pneumoniae ATCC 49619. Put plainly: In vitro antibacterial activity (MIC). Conditions: ATCC49619, erythromycin sensitive strain ATCC 49619. As for the experimental part: as §1
The subject of test [4] is Streptococcus pneumoniae ATCC 6301. In words: In vitro antibacterial activity (MIC). The settings on record: ATCC6301, erythromycin sensitive strain ATCC 6301. As for the experimental part: as §1

The structures appear in SMILES notation. Converted amounts (≈) assume the structure as drawn. Some results are limits rather than exact numbers.

T1 sequence (O43193 whole entry): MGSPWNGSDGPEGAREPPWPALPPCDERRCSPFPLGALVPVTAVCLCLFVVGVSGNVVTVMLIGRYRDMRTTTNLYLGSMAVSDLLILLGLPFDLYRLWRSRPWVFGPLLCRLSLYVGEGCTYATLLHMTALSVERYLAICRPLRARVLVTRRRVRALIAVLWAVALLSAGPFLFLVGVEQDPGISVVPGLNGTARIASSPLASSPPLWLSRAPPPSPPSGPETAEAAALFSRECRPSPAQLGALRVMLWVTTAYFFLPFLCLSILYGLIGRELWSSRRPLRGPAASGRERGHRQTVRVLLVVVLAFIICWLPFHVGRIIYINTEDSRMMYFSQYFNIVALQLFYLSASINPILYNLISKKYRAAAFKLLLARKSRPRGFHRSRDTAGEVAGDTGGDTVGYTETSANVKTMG

In general, EC50 refers to the concentration needed to bring the measured effect to its halfway point. High values mean weaker potency, low ones greater potency. A word on the MIC: it is the smallest concentration in the dilution series that meets the test's criterion for growth inhibition. Read a low MIC as greater potency. With `CC[C@H]1OC(=O)[C@H](C)[C@@H](O[C@H]2C[C@@](C)(OC)[C@@H](O)[C@H](C)O2)[C@H](C)[C@@H](O[C@@H]2O[C@H](C)C[C@H](N(C)CC(C)C)[C@H]2O)C(C)(O)C[C@@H](C)C(=O)[C@H](C)C[C@H]1C` (stereo partly drawn) [IVb, N-desmethyl-N-isobutyl-11-deoxyerythromycin B], in test [1], the EC50 is 2100 nM. In addition, the minimum inhibitory concentration (MIC) is above 200 µg/mL in test [2], 200 µg/mL (≈ 269 µM) in test [3] and 200 µg/mL (≈ 269 µM) in test [4].

For `CC[C@H]1OC(=O)[C@H](C)[C@@H](O[C@H]2C[C@@](C)(OC)[C@@H](O)[C@H](C)O2)[C@H](C)[C@@H](O[C@@H]2O[C@H](C)C[C@H](N(C)C(C)C)[C@H]2O)C(C)(O)C[C@@H](C)C(=O)[C@H](C)C[C@H]1C` (stereo partly drawn) [IVa, N-desmethyl-N-isopropyl-11-deoxyerythromycin B], in test [1], the EC50 was 700 nM. For the same compound, the minimal inhibitory concentration (MIC) in test [2] was found to be 200 µg/mL (≈ 274 µM); in test [3], 6.25 µg/mL (≈ 8.56 µM); in test [4], 12.5 µg/mL (≈ 17.1 µM).

As to `CC[C@H]1OC(=O)[C@H](C)[C@@H](O[C@H]2C[C@@](C)(OC)[C@@H](O)[C@H](C)O2)[C@H](C)[C@@H](O[C@@H]2O[C@H](C)C[C@H](N(C)C)[C@H]2O)[C@](C)(O)C[C@@H](C)C(=O)[C@H](C)[C@@H](O)[C@]1(C)O` [Erythromycin A, reference compound], the results for the minimum inhibitory concentration (MIC) in test [2], in test [3] and in test [4] were 0.049 µg/mL (≈ 0.0668 µM), 0.049 µg/mL (≈ 0.0668 µM) and 0.025 µg/mL (≈ 0.0341 µM), respectively.

Regarding `CC[C@H]1OC(=O)[C@H](C)[C@@H](O[C@H]2C[C@@](C)(OC)[C@@H](O)[C@H](C)O2)[C@H](C)[C@@H](O[C@@H]2O[C@H](C)C[C@H](N(C)C)[C@H]2O)C(C)(O)C[C@@H](C)C(=O)[C@H](C)C[C@H]1C` (stereo partly drawn) [11-Deoxyerythromycin B, reference compound], the EC50 in test [1] amounted to 1200 nM. The MIC in test [2] is 0.78 µg/mL (≈ 1.11 µM); in test [3] it was 0.098 µg/mL (≈ 0.14 µM); in test [4], 0.049 µg/mL (≈ 0.0698 µM).
